# Test results: US20240408098A1, “COMBINATIONS OF KRAS G12D INHIBITORS WITH PI3Ka INHIBITORS AND RELATED METHODS OF TREATMENT” (MIRATI THERAPEUTICS, INC., priority 2021, published 2024)
# Tests used:
# Assay type in all cases: in vivo
# [1] = system: LS180 colon cancer cell line; assay: LS180 xenograft in nude/nude mice, average tumor volumes; conditions: for Average Tumor Volumes: nude/nude mice, 15 mg/kg QD
# Protocol: (§1) Immunocompromised nude/nude mice are inoculated in the right hind flank with cells harboring a KRas G12D mutation. When tumor volumes reach between 200-400 mm^3 in size, the mice are divided into four to five groups of 5 mice each. The first group is administered vehicle only. […] The fourth group is administered the single agent dose of the KRas G12D inhibitor using the twice daily for 2 sequential days followed by 5 days off schedule in combination with the single agent dose of Irinotecan. The treatment period varies from cell line to cell line but typically is between 15-22-days. Tumor volumes are measured using a caliper every two-three days and tumor volumes are calculated by the formula: […].
# (§2) 20 to 25 nude/nude mice per study were inoculated in the right hind limb with 5×10^6 LS180 cells, AsPC-1 cells, GP2D cells, or Panc 02.03 cells. When tumor volumes reached ˜200 mm3-400 mm3 (study day 0) 5 mice in each of the groups were administered i.p. vehicle only (10% captisol in 50 mM citrate buffer pH 5.0), 30 mg/kg of Kras G12D inhibitor MRTX1133 (10% captisol in 50 mM citrate buffer, pH 5.0) either on the twice daily schedule or the twice daily for 2 consecutive days followed by 5 days off schedule, 15 mg/kg once daily of the BYL719 (0.5% methylcellulos) PI3Ka inhibitor, or 30 mg/kg of Kras G12D inhibitor on either schedule and BYL719. Tumor volumes, measured at pre-specified days, for the five mice per group were averaged and are reported for LS180, AsPC-1, GP2D, and Panc 02.03 in Tables 1, 2, 3, and 4, respectively.
# 25 nude/nude mice were inoculated with LS180 cells in the hind right flank. When the tumors reached ˜250 mm^3 five treatment groups were established with 5 mice per group.
# [2] = system: AsPC-1 pancreatic cancer cell line; assay: AsPC-1 xenograft in nude/nude mice, average tumor volumes; conditions: for tumor growth inhibition: single agent; for Average Tumor Volumes: nude/nude mice, 15 mg/kg QD
# Protocol: as §1, §2
# 30 nude/nude mice were inoculated with AsPC-1 cells in the hind right flank. When the tumors reached ˜300 mm^3 six treatment groups were established with 5 mice per group.
# [3] = system: GP2D colorectal cancer cell line; assay: GP2D xenograft in nude/nude mice, average tumor volumes
# Protocol: as §1
# as §2, with “respectively. […]” for “respectively.”
# [4] = system: PANC0203 pancreatic cancer cell line; assay: Panc 02.03 xenograft in nude/nude mice, average tumor volumes; conditions: 15 mg/kg QD
# Protocol: as §1, §2
# 20 nude/nude mice were inoculated with Panc 02.03 cells in the hind right flank. When the tumors reached ˜300 mm^3 four treatment groups were established with 5 mice per group.
structure (smiles),measurement,setting,value
"Cc1nc(NC(=O)N2CCC[C@H]2C(N)=O)sc1-c1ccnc(C(C)(C)C(F)(F)F)c1 [BYL719, (2S)-N1-[4-Methyl-5-[2-(2,2,2-trifluoro-1,1-dimethylethyl)-4-pyridinyl]-2-thiazolyl]-1,2-pyrrolidinedicarboxamide]",tumor growth inhibition,"[1]; 15 mg/kg once daily, single agent, Day 15",44%
same,Average Tumor Volumes,[1]; Study Day 1,273.184 mm^3
same,Average Tumor Volumes,[1]; Study Day 4,501.45 mm^3
same,Average Tumor Volumes,[1]; Study Day 8,799.338 mm^3
same,Average Tumor Volumes,[1]; Study Day 11,1016.09 mm^3
same,Average Tumor Volumes,[1]; Study Day 15,1225.468 mm^3
same,tumor growth inhibition,"[2]; 15 mg/kg once daily, Day 34",0%
same,Average Tumor Volumes,[2]; Study Day 1,331.29 mm^3
same,Average Tumor Volumes,[2]; Study Day 6,429.172 mm^3
same,Average Tumor Volumes,[2]; Study Day 9,473.138 mm^3
same,Average Tumor Volumes,[2]; Study Day 13,531.394 mm^3
same,Average Tumor Volumes,[2]; Study Day 16,580.446 mm^3
same,Average Tumor Volumes,[2]; Study Day 20,688.564 mm^3
same,Average Tumor Volumes,[2]; Study Day 23,742.98 mm^3
same,Average Tumor Volumes,[2]; Study Day 27,918.424 mm^3
same,Average Tumor Volumes,[2]; Study Day 30,1283 mm^3
same,Average Tumor Volumes,[2]; Study Day 34,1622 mm^3
same,Average Tumor Volumes,"[3]; 15 mg/kg QD, Study Day 1",307.604 mm^3
same,Average Tumor Volumes,"[3]; 15 mg/kg QD, Study Day 7",369.474 mm^3
same,Average Tumor Volumes,"[3]; 15 mg/kg QD, Study Day 10",395.68 mm^3
same,Average Tumor Volumes,"[3]; 15 mg/kg QD, Study Day 14",467.526 mm^3
same,Average Tumor Volumes,"[3]; 15 mg/kg QD, Study Day 17",546.962 mm^3
same,Average Tumor Volumes,"[3]; 15 mg/kg QD, Study Day 21",681.056 mm^3
same,Average Tumor Volumes,"[3]; 15 mg/kg QD, Study Day 26",901.144 mm^3
same,Average Tumor Volumes,"[3]; 15 mg/kg QD, Study Day 28",1053.732 mm^3
same,Average Tumor Volumes,"[3]; 15 mg/kg QD, Study Day 31",1102.87 mm^3
same,Average Tumor Volumes,"[3]; 15 mg/kg QD, Study Day 35",1202.89 mm^3
same,Average Tumor Volumes,[4]; Study Day 1,330.188 mm^3
same,Average Tumor Volumes,[4]; Study Day 4,341.414 mm^3
same,Average Tumor Volumes,[4]; Study Day 8,367.35 mm^3
same,Average Tumor Volumes,[4]; Study Day 11,487.664 mm^3
same,Average Tumor Volumes,[4]; Study Day 15,572.82 mm^3
same,Average Tumor Volumes,[4]; Study Day 18,680.306 mm^3
same,Average Tumor Volumes,[4]; Study Day 22,774.992 mm^3
"C#Cc1c(F)ccc2cc(O)cc(-c3ncc4c(N5C[C@H]6CC[C@@H](C5)N6)nc(OC[C@@]56CCCN5C[C@H](F)C6)nc4c3F)c12 [MRTX1133, 4-(4-((1R,5S)-3,8-diazabicyclo[3.2.1]octan-3-yl)-8-fluoro-2-(((2R,7aS)-2-fluorohexahydro-1H-pyrrolizin-7a-yl)methoxy)pyrido[4,3-d]pyrimidin-7-yl)-5-ethynyl-6-fluoronaphthalen-2-ol]",tumor growth inhibition,"[2]; 30 mg/kg BID twice weekly, day 34",43%
same,Average Tumor Volumes,"[3]; 30 mg/kg BID Daily i.p., Study Day 1",300.778 mm^3
same,Average Tumor Volumes,"[3]; 30 mg/kg BID Daily i.p., Study Day 7",263.132 mm^3
same,Average Tumor Volumes,"[3]; 30 mg/kg BID Daily i.p., Study Day 10",237.628 mm^3
same,Average Tumor Volumes,"[3]; 30 mg/kg BID Daily i.p., Study Day 14",221.728 mm^3
same,Average Tumor Volumes,"[3]; 30 mg/kg BID Daily i.p., Study Day 17",221.788 mm^3
same,Average Tumor Volumes,"[3]; 30 mg/kg BID Daily i.p., Study Day 21",242.56 mm^3
same,Average Tumor Volumes,"[3]; 30 mg/kg BID Daily i.p., Study Day 26",254.57 mm^3
same,Average Tumor Volumes,"[3]; 30 mg/kg BID Daily i.p., Study Day 28",307.03 mm^3
same,Average Tumor Volumes,"[3]; 30 mg/kg BID Daily i.p., Study Day 31",333.20 mm^3
same,Average Tumor Volumes,"[3]; 30 mg/kg BID Daily i.p., Study Day 35",358.75 mm^3
